Assays:
MKN45 cells = assay: Test D: cellular proliferation by 14C-thymidine pulse, MKN45 cells; type: cell-based; details: cell line not stated (HCT116 or MKN45)
Procedure, shortened: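 MKN45 cells (7500/well, RPMI + 10% foetal calf serum) treated with 10 concentrations, 10000 to 0.3 nM in 3-fold steps, duplicate. 14C-thymidine (0.1 μCi/well) added at 72 h; incorporation counted after 24 h pulse, 96 h total treatment.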

RON = RON (Homo sapiens, UniProt Q04912); assay: Test B: HTRF RON test in 96-well format; type: biochemical
Procedure, shortened: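 RON 5 nM pre-incubated 30 min at RT with compound (0.17 nM–10 μM final, 3% DMSO) in MOPS 10 mM pH 7, DTT, Tween 20. Reaction with biotinylated poly-(GAT) 1 μg/ml, ATP 10 μM, MgCl2 5 mM, 30 min RT. Eu-anti-pTyr/streptavidin-XL665 HTRF, 665/620 ratio gives % inhibition, IC50.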

[1] = Homo sapiens, MKN-45, cellular proliferation by 14C-thymidine pulse

Sequence of RON (Q04912 25-1400): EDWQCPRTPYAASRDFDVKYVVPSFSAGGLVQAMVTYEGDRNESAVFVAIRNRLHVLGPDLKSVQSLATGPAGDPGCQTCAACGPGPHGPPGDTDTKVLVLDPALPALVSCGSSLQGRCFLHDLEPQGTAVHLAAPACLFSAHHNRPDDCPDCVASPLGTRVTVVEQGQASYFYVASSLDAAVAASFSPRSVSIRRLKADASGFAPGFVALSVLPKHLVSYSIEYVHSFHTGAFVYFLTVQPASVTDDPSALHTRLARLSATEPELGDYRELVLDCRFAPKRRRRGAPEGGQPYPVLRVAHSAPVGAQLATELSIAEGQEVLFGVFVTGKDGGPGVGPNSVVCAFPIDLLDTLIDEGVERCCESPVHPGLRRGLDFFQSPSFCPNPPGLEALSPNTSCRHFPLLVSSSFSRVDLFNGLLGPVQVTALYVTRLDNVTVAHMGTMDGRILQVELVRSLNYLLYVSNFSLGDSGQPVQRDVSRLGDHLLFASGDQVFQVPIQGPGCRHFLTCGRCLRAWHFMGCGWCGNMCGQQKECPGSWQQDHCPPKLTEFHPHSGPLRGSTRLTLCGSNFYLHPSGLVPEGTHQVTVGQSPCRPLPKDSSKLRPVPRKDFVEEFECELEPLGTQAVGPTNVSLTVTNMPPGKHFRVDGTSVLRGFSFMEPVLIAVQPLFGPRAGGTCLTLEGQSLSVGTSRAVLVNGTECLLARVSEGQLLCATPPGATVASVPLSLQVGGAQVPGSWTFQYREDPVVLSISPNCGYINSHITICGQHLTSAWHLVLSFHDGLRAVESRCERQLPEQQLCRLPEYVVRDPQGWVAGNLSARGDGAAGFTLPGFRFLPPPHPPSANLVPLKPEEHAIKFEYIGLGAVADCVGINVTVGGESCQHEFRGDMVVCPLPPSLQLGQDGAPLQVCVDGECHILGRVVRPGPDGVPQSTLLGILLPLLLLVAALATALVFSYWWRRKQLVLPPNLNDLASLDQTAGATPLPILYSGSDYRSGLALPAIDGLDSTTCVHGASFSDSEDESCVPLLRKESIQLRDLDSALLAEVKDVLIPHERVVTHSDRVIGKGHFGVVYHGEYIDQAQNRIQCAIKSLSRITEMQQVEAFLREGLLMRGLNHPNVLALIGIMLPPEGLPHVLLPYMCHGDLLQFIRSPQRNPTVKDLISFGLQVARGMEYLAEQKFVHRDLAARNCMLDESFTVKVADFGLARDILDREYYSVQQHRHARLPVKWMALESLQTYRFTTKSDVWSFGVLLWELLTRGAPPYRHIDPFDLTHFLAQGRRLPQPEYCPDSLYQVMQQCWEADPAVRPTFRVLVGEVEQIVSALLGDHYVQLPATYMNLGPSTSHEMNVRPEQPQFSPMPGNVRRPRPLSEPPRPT

| Compound | IC50 (MKN45 cells; [1]) [nM] | IC50 (RON) [nM] | IC50 (MKN45 cells; cellular proliferation by 14C-thymidine pulse) [nM] |
| --- | --- | --- | --- |
| CCN(CC)CCNC(=O)Nc1nc2ccc(OC(C)c3c(Cl)ccc(F)c3Cl)cc2s1 (centres unmarked) [Example 82, 1-{6-[1-(2,6-dichloro-3-fluorophenyl)ethoxy]-1,3-benzothiazol-2-yl}-3-[2-(diethylamino)ethyl]urea] | 500 to 10000 | 500 to 10000 | – |
| CC(Oc1cc2sc(NC(=O)NCCN(C)Cc3ccccc3)nc2cc1F)c1c(Cl)ccc(F)c1Cl (centres unmarked) [Example 94, 1-{2-[benzyl(methyl)amino]ethyl}-3-{6-[1-(2,6-dichloro-3-fluorophenyl)ethoxy]-5-fluoro-1,3-benzothiazol-2-yl}urea] | 500 to 10000 | 500 to 10000 | – |
| CC(Oc1cc2sc(NC(=O)NCCN)nc2cc1F)c1c(Cl)ccc(F)c1Cl (centres unmarked) [Example 88, 1-(2-aminoethyl)-3-{6-[1-(2,6-dichloro-3-fluorophenyl)ethoxy]-5-fluoro-1,3-benzothiazol-2-yl}urea] | 500 to 10000 | 500 to 10000 | – |
| CC(Oc1cc2sc(NC(=O)NCCC3CCCN3C)nc2cc1F)c1c(Cl)ccc(F)c1Cl (centres unmarked) [Example 79, 1-{6-[1-(2,6-dichloro-3-fluorophenyl)ethoxy]-5-fluoro-1,3-benzothiazol-2-yl}-3-[2-(1-methylpyrrolidin-2-yl)ethyl]urea] | 500 to 10000 | < 500 | – |
| CCN(CC)CCCNC(=O)Nc1nc2ccc(OC(C)c3c(Cl)ccc(F)c3Cl)cc2s1 (centres unmarked) [Example 83, 1-{6-[1-(2,6-dichloro-3-fluorophenyl)ethoxy]-1,3-benzothiazol-2-yl}-3-[3-(diethylamino)propyl]urea] | 500 to 10000 | 500 to 10000 | – |
| CC(Oc1cc2sc(NC(=O)NCCO)nc2cc1F)c1c(Cl)ccc(F)c1Cl (centres unmarked) [Example 98, 1-{6-[1-(2,6-dichloro-3-fluorophenyl)ethoxy]-5-fluoro-1,3-benzothiazol-2-yl}-3-(2-hydroxyethyl)urea] | 500 to 10000 | < 500 | – |
| CC(Oc1cc2sc(NC(=O)NCCN3CCCC3)nc2cc1F)c1c(Cl)ccc(F)c1Cl (single isomer, unassigned) [Example 85, 1-{6-[(1R*)-1-(2,6-dichloro-3-fluorophenyl)ethoxy]-5-fluoro-1,3-benzothiazol-2-yl}-3-[2-(pyrrolidin-1-yl)ethyl]urea] | < 500 | < 500 | – |
| CC(Oc1cc2sc(NC(=O)NCCN(C)C(=O)OC(C)(C)C)nc2cc1F)c1c(Cl)ccc(F)c1Cl (centres unmarked) [Example 95] | 500 to 10000 | 500 to 10000 | – |
| CC(Oc1cc2sc(NC(=O)NCCCN3CCCC3=O)nc2cc1F)c1c(Cl)ccc(F)c1Cl (centres unmarked) [Example 78, 1-{6-[1-(2,6-dichloro-3-fluorophenyl)ethoxy]-5-fluoro-1,3-benzothiazol-2-yl}-3-[3-(2-oxopyrrolidin-1-yl)propyl]urea] | 500 to 10000 | < 500 | – |

More lines, now with the values ahead:

| IC50 (MKN45 cells; [1]) [nM] | IC50 (RON) [nM] | IC50 (MKN45 cells; cellular proliferation by 14C-thymidine pulse) [nM] | Compound |
| --- | --- | --- | --- |
| 500 to 10000 | 500 to 10000 | – | CC(Oc1cc2sc(NC(=O)NCCN)nc2cc1F)c1c(Cl)ccc(F)c1Cl (single isomer, unassigned) [Example 89, 1-(2-aminoethyl)-3-{6-[(1R*)-1-(2,6-dichloro-3-fluorophenyl)ethoxy]-5-fluoro-1,3-benzothiazol-2-yl}urea] |
| < 500 | 500 to 10000 | – | CC(Oc1cc2sc(NC(=O)NCCN3CCCC3)nc2cc1F)c1c(Cl)ccc(F)c1Cl (centres unmarked) [Example 84, 1-{6-[1-(2,6-dichloro-3-fluorophenyl)ethoxy]-5-fluoro-1,3-benzothiazol-2-yl}-3-[2-(pyrrolidin-1-yl)ethyl]urea] |
| < 500 | 500 to 10000 | – | O=C(Nc1nc2ccc(OCc3c(Cl)cccc3Cl)cc2[nH]1)C1CC1 [Example 7, N-{6-[(2,6-dichlorobenzyl)oxy]-1H-benzimidazol-2-yl}cyclopropane carboxamide] |
| 500 to 10000 | < 500 | – | CNCCNC(=O)Nc1nc2cc(F)c(OC(C)c3c(Cl)ccc(F)c3Cl)cc2s1 (centres unmarked) [Example 96, 1-{6-[1-(2,6-dichloro-3-fluorophenyl)ethoxy]-5-fluoro-1,3-benzothiazol-2-yl}-3-[2-(methylamino)ethyl]urea] |
| 500 to 10000 | < 500 | – | COCCNC(=O)Nc1nc2cc(F)c(OC(C)c3c(Cl)ccc(F)c3Cl)cc2s1 (centres unmarked) [Example 81, 1-{6-[1-(2,6-dichloro-3-fluorophenyl)ethoxy]-5-fluoro-1,3-benzothiazol-2-yl}-3-(2-methoxyethyl)urea] |
| 500 to 10000 | 500 to 10000 | – | CC(Oc1cc2sc(NC(=O)NCCOCc3ccccc3)nc2cc1F)c1c(Cl)ccc(F)c1Cl (centres unmarked) [Example 97, 1-[2-(benzyloxy)ethyl]-3-{6-[1-(2,6-dichloro-3-fluorophenyl)ethoxy]-5-fluoro-1,3-benzothiazol-2-yl}urea] |
| < 500 | < 500 | – | CC(Oc1cc2sc(NC(=O)NCCN3CCN(C)CC3)nc2cc1F)c1c(Cl)ccc(F)c1Cl (centres unmarked) [Example 75, 1-{6-[1-(2,6-dichloro-3-fluorophenyl)ethoxy]-5-fluoro-1,3-benzothiazol-2-yl}-3-[2-(4-methylpiperazin-1-yl)ethyl]urea] |
| – | 500 to 10000 | 500 to 10000 | CC(Oc1cc2sc(NC(=O)NCCN3CCN(C)CC3)nc2cc1F)c1c(Cl)ccc(F)c1Cl (single isomer, unassigned) [Example 77, 1-{6-[(1S*)-1-(2,6-dichloro-3-fluorophenyl)ethoxy]-5-fluoro-1,3-benzothiazol-2-yl}-3-[2-(4-methylpiperazin-1-yl)ethyl]urea] |
| < 500 | < 500 | – | CC(Oc1cc2sc(NC(=O)NCCN3CCN(C)CC3)nc2cc1F)c1c(Cl)ccc(F)c1Cl (single isomer, unassigned) [Example 76, 1-{6-[(1R*)-1-(2,6-dichloro-3-fluorophenyl)ethoxy]-5-fluoro-1,3-benzothiazol-2-yl}-3-[2-(4-methylpiperazin-1-yl)ethyl]urea] |
| 500 to 10000 | < 500 | – | CC(Oc1cc2[nH]c(NC(=O)NCCN3CCOCC3)nc2cc1F)c1c(Cl)ccc(F)c1Cl (centres unmarked) [Example 6, 1-{6-[1-(2,6-dichloro-3-fluorophenyl)ethoxy]-5-fluoro-1H-benzimidazol-2-yl}-3-(2-morpholin-4-ylethyl)urea] |

— patent US8188078B2 (Sanofi-Aventis, priority 2007, dated 2012)
